Earlier results, collected in patent publication US20210095260A1, “BI- OR MULTI-DIFFERENTIATED ORGANOID” (IMBA - INSTITUT FÜR MOLEKULARE BIOTECHNOLOGIE GMBH, priority 2017, published 2021).

Tested on: hPSCs
Details: inhibition of SHH activity; cited from earlier work

CC1=C2C[C@H]3[C@@H](CC=C4C[C@@H](O)CC[C@@]43C)[C@@H]2CC[C@]12O[C@@H]1C[C@H](C)CN[C@H]1[C@H]2C [CycA, cyclopamine A]
dorsal forebrain identity: can enhance dorsal forebrain identity
